The values below come from patent publication US20050171057A1, “Pantoprazole cyclodextrin inclusion complexes” (ALTANA PHARMA AG, priority 2002, published 2005).

Series [1] is described as follows: Complexation (phase solubility) study of pantoprazole with βCD and HPβCD in phosphate buffer pH 7. It is filed as physicochemical. The note with it: in the presence of βCD (up to 1.8% p/v), phosphate buffer pH 7, maximum. The protocol: Methods: Various solutions of the different cyclodextrins taken into consideration were prepared in phosphate buffer solution pH 7 at known concentrations and used to create saturated solutions of pantoprazole. After equilibration, these saturated solutions were filtered through MF™ membrane filters (pore size 0.45 μm), appropriately diluted with phosphate buffer solution and subjected to uv/vis spectrophotometric analysis. The cyclodextrin solutions prepared with phosphate buffer ranged from concentrations of 0% p/v up to 1.8% p/v for βCD, 20% p/v for HPβCD.

The nature of series [2]: Phase-solubility studies of PNTH with β-CD, HPβ-CD and SBβ-CD in phosphate buffer pH 7. In kind it is physicochemical. As to conditions: for solubility: thermodynamic from solid; for increase of apparent solubility versus phosphate buffer alone: phosphate buffer pH 7. The protocol:
The Solubility of PNTH in Phosphate Buffer Solution at pH 7 was Determined Using a Previously Constructed Asorbance vs. Concentration Calibration Curve.
A known amount of PNTH was suspended in cyclodextrin solutions of different concentrations ranging from; 0 to 1.8% (p/v) for β-CD, 0 to 20% (p/v) for H-Pβ-CD and 0 to 15% (p/v) for SB-β-CD. The resulting suspension was filtered using a PTFE 0.45μ filter, adequately diluted and then subjected to UV spectrophotometric analysis. The concentration of PNTH in the corresponding sample was then calculated referring to the relevant PNTH calibration curve.
UV-VIS spectra were recorded on a Jasco V570 Spectrophoto meter.

In brackets after ≈: the same amount, converted by molar mass. Like-named read-outs stand apart in the source and are kept apart here.

As usually defined, the solubility is how much of the substance goes into solution per volume. On to `COc1ccnc(C[S+]([O-])c2nc3ccc(OC(F)F)cc3[nH]2)c1OC` (centres unmarked) [pantoprazole, 5-difluoromethoxy-2-[(3,4-dimethoxy-2-pyridinyl)methylsulfinyl]-1H-benzimidazole], for which the “increase of solubility with respect to solubility in phosphate buffer” value in series [1] is reported as “four”. Further, the solubility in series [2] (aqueous buffer, phosphate buffer solution pH 7, no cyclodextrin, read-out: solubility in phosphate buffer alone) worked out at 0.56 mM (≈ 215 µg/mL); in series [2] (aqueous with cosolvent or surfactant or cyclodextrin, solutions of HPβ-CD (0 to 20% p/v) in phosphate buffer pH 7, maximum reached, read-out: apparent solubility with HPβ-CD), 17.8 mM (≈ 6820 µg/mL); in series [2] (aqueous with cosolvent or surfactant or cyclodextrin, solutions of SBβ-CD (0 to 15% p/v) in phosphate buffer pH 7, maximum reached, read-out: apparent solubility with SBβ-CD) it was 9.3 mM (≈ 3570 µg/mL); in series [2] (aqueous with cosolvent or surfactant or cyclodextrin, solutions of β-CD (0 to 1.8% p/v) in phosphate buffer pH 7, maximum reached, read-out: apparent solubility with β-CD), 2.25 mM (≈ 863 µg/mL). Moreover, the “increase of apparent solubility versus phosphate buffer alone” value in series [2] (solutions of HPβ-CD (0 to 20% p/v)) was 36 times; in series [2] (solutions of SBβ-CD (0 to 15% p/v)), “twenty”; in series [2] (solutions of β-CD (0 to 1.8% p/v)), “four”.
